Experimental findings from PubChem BioAssay (NCI) are described below.

Some test systems named below: SR leukemia; NCI-H226 lung; RXF 393 renal; EKVX NSCLC; SK-OV-3 ovarian; MDA-MB-435; HS 578T breast; A498 renal; DU-145 prostate; KM12 colon.
What all share (assay): NCI-60 cell line screen, 48 h

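Each compound was tested at five concentrations against cells in 96-well plates for 48 hours. Abbreviation: GI50, concentration required for 50% inhibition of growth. At the TGI there is no net growth.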

For `NS(=O)(=O)OC[C@H]1O[C@@H](n2cnc3c(N[C@H]4CCc5ccccc54)ncnc32)[C@H](O)[C@@H]1O`, the GI50 was 0.0368 µM in the assay with SR leukemia; 0.0285 µM with NCI-H226 lung; 0.258 µM in the assay on RXF 393 renal; 0.349 µM in the assay on EKVX NSCLC; 0.234 µM with SK-OV-3 ovarian; 0.114 µM with MDA-MB-435. Moreover, the GI50 with HS 578T breast is 0.432 µM; in the assay on A498 renal, 0.0288 µM; with DU-145 prostate it was 0.0838 µM; with KM12 colon it was 0.525 µM. Also, the TGI in the assay on SR leukemia is more than 52.6 µM; in the assay with NCI-H226 lung, 0.0863 µM; in the assay on RXF 393 renal, 0.506 µM; with EKVX NSCLC, 9.07 µM; in the assay with SK-OV-3 ovarian it was 0.644 µM; with MDA-MB-435, 0.351 µM. The TGI in the assay on HS 578T breast worked out at 6.93 µM; in the assay on A498 renal, 0.124 µM; in the assay with DU-145 prostate, 1.36 µM; in the assay on KM12 colon, 2.58 µM.

In the case of `COC1=C(NC(C)=O)C(=O)c2nc3n(c2C1=O)CCC3`, the TGI in the assay with SR leukemia was more than 86.2 µM; with NCI-H226 lung it was 49.4 µM; with RXF 393 renal it was 31.7 µM; with EKVX NSCLC, 38.9 µM; with SK-OV-3 ovarian, more than 100 µM; with MDA-MB-435, 9.97 µM. The TGI with HS 578T breast was 82.8 µM; in the assay on A498 renal, 50.2 µM; in the assay with DU-145 prostate, 35.8 µM; in the assay on KM12 colon it was more than 57.8 µM.

Take `c1ccc2c(c1)N=c1ccccc1=P21c2ccccc2Nc2ccccc21`: the TGI in the assay with SR leukemia is 1.75 µM; in the assay on NCI-H226 lung, 3.65 µM; in the assay with RXF 393 renal, 1.89 µM; with EKVX NSCLC, more than 31.1 µM; in the assay with SK-OV-3 ovarian, 5.82 µM; in the assay with MDA-MB-435, 2.35 µM. Moreover, the TGI amounted to 3.89 µM with HS 578T breast, 5.56 µM in the assay on A498 renal, 10.5 µM in the assay on DU-145 prostate and 2.13 µM in the assay on KM12 colon.

In the case of `O=C(O)CSc1ccn(Cc2ccccc2)c1`, the TGI in the assay with SR leukemia, in the assay on NCI-H226 lung, in the assay with RXF 393 renal, in the assay on EKVX NSCLC, in the assay with SK-OV-3 ovarian and in the assay with MDA-MB-435 was more than 100 µM throughout. In addition, the TGI in the assay with HS 578T breast, in the assay on A498 renal, with DU-145 prostate and in the assay with KM12 colon was more than 100 µM each time.

As to `N#CC1=C(N)Oc2c(sc3c(F)cccc23)C1c1ccc(Cl)cc1` (stereo not given), the GI50 is 1.6 µM in the assay with SR leukemia; 12.7 µM in the assay on NCI-H226 lung; 1.92 µM with RXF 393 renal; 4 µM with EKVX NSCLC; 5.16 µM in the assay on SK-OV-3 ovarian; 0.616 µM in the assay on MDA-MB-435. Moreover, the GI50 in the assay on HS 578T breast is 2.63 µM; in the assay on A498 renal, 2.57 µM; with DU-145 prostate, 3.49 µM; with KM12 colon, 2.75 µM. Moreover, the TGI turned out to be 13.4 µM with SR leukemia; 34.8 µM in the assay with NCI-H226 lung; 6 µM in the assay with RXF 393 renal; 21.7 µM in the assay on EKVX NSCLC; 20 µM in the assay on SK-OV-3 ovarian; 2.7 µM in the assay with MDA-MB-435. Besides, the TGI came to 15.5 µM in the assay on HS 578T breast, 11.2 µM with A498 renal, 12.9 µM with DU-145 prostate and 18.9 µM in the assay with KM12 colon.

Turning to `COc1cc(C2C3=C(COC3=O)N(CCO)c3cc4c(cc32)OCCO4)cc(OC)c1O` (stereo not given), the GI50 was 1.86 µM in the assay on SR leukemia; more than 19.5 µM in the assay with NCI-H226 lung; 0.971 µM in the assay with RXF 393 renal; 3.5 µM with EKVX NSCLC; 2.29 µM with SK-OV-3 ovarian; 0.331 µM in the assay on MDA-MB-435. Also, the GI50 in the assay on HS 578T breast is 1.14 µM; in the assay on A498 renal, 1.41 µM; in the assay with DU-145 prostate it was 1.71 µM; with KM12 colon, 1.5 µM. Besides, the TGI in the assay with SR leukemia was more than 50 µM; in the assay with NCI-H226 lung, more than 50 µM; in the assay with RXF 393 renal it was more than 50 µM; with EKVX NSCLC it was more than 50 µM; in the assay on SK-OV-3 ovarian, more than 50 µM; with MDA-MB-435, 1.71 µM. Besides, the TGI in the assay on HS 578T breast is more than 50 µM; in the assay with A498 renal, more than 23.4 µM; in the assay with DU-145 prostate, more than 21.7 µM; in the assay with KM12 colon it was more than 37 µM.

Regarding `C=CC[n+]1c(/C=C2\Sc3ccccc3N2C)sc(-c2ccccc2)c1-c1ccccc1`, the GI50 was 0.353 µM with SR leukemia; 0.258 µM with NCI-H226 lung; 0.519 µM in the assay with RXF 393 renal; 0.478 µM in the assay on EKVX NSCLC; 0.296 µM with SK-OV-3 ovarian; 0.335 µM in the assay with MDA-MB-435. In addition, the GI50 is 0.374 µM in the assay with HS 578T breast, 0.264 µM in the assay with A498 renal, 0.439 µM in the assay with DU-145 prostate and 0.331 µM with KM12 colon. Moreover, the TGI in the assay on SR leukemia was found to be 1.87 µM; in the assay with NCI-H226 lung it was 0.977 µM; in the assay on RXF 393 renal, 8.94 µM; with EKVX NSCLC it was 12.9 µM; with SK-OV-3 ovarian, 0.92 µM; in the assay on MDA-MB-435, 1.68 µM. Besides, the TGI stood at 19.4 µM with HS 578T breast, 2.32 µM in the assay on A498 renal, 12.2 µM in the assay with DU-145 prostate and 1.95 µM in the assay with KM12 colon.

In the case of `COc1ccc2c(c1)Cc1cc(N=[N+]([O-])c3ccc4c(c3)Cc3cc(OC)ccc3-4)ccc1-2`, the TGI in the assay with SR leukemia was 41.5 µM; in the assay with NCI-H226 lung, more than 100 µM; in the assay with RXF 393 renal, more than 100 µM; in the assay on EKVX NSCLC, more than 100 µM; in the assay with SK-OV-3 ovarian it was more than 100 µM; in the assay on MDA-MB-435 it was more than 100 µM. For the same molecule, the TGI was more than 100 µM in the assay on HS 578T breast, 95 µM with A498 renal, more than 100 µM with DU-145 prostate and more than 100 µM in the assay on KM12 colon.

For `CCCCCCCC(=O)SCC/C=C/[C@@H]1CC(=O)NCc2cccc(n2)CN(Cc2ccc(Cl)cc2)CC(=O)N[C@@H](C(C)C)C(=O)O1`, the GI50 in the assay with SR leukemia is 3.64 µM; in the assay with NCI-H226 lung, 22 µM; in the assay on RXF 393 renal, 5.9 µM; with EKVX NSCLC, 17.8 µM; in the assay with SK-OV-3 ovarian, 6.41 µM; with MDA-MB-435, 6.06 µM. Also, the GI50 with HS 578T breast is 6.05 µM; in the assay on A498 renal, 8.67 µM; in the assay with DU-145 prostate it was 10.9 µM; in the assay on KM12 colon, 9.4 µM. Besides, the TGI is more than 100 µM with SR leukemia; more than 100 µM in the assay on NCI-H226 lung; 44 µM in the assay on RXF 393 renal; more than 100 µM in the assay with EKVX NSCLC; 42.7 µM in the assay on SK-OV-3 ovarian; more than 100 µM in the assay with MDA-MB-435. In addition, the TGI was 56.1 µM with HS 578T breast, 22.8 µM in the assay on A498 renal, more than 100 µM with DU-145 prostate and 65.1 µM in the assay with KM12 colon.
